Consider 49 compounds from US8835440B2, “Cyclic pyrimidin-4-carboxamides as CCR2 receptor antagonists for treatment of inflammation, asthma and COPD” (Boehringer Ingelheim International GmbH, priority 2008, dated 2014).

As a reminder, the Ki is a dissociation constant, usually derived from enzyme kinetics or from competition with a known ligand.

The test has as its target T1, CCR2 (Homo sapiens, UniProt P41597).
T1 construct: Membranes were prepared from THP-1 cells; endogenous in cells; host or cells: THP-1 cells (membrane preparation)
T1 sequence (P41597 1-360 isoform P41597-2): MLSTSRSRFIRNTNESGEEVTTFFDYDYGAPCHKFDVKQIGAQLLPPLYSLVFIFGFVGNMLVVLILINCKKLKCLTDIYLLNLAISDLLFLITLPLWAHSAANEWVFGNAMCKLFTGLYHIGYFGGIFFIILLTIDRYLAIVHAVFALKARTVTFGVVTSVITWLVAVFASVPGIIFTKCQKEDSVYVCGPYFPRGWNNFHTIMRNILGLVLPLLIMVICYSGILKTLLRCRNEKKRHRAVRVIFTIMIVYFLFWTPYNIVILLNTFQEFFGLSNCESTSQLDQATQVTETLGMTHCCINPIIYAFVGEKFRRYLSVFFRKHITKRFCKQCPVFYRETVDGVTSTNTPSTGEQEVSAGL
Kind of test: CCR2 receptor membrane binding assay ([125I]MCP-1, THP-1 cell membranes, SPA beads). To be noted: for remaining activity at 10 µM / CCR2 % ctrl @ 10 μM: @ 10 μM test compound, THP-1 membranes; for remaining activity at 10 µM: read-out: CCR2 % ctrl @ 10 μM; for Ki: dissociation constant hKi, [125I]MCP-1 binding to THP-1 membranes. Put shortly: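 Human THP-1 monocytic cell membranes, pre-coupled to WGA-PVT SPA beads, were incubated with compound and [125I]MCP-1 (ca. 25000 cpm) in 25 mM HEPES pH 7.2, 5 mM MgCl2, 0.5 mM CaCl2, 0.2% BSA, at 1% DMSO final. Bound radioactivity was counted after 8 h, and Ki was obtained by iterative mass-action fitting.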

With `COC1CCN(C2CCN(C(=O)c3ncnc(NCC4CCN(c5ccccc5)CC4)c3C)CC2)CC1` [Example 96], the remaining activity at 10 µM turned out to be 21% and affinity was put at a Ki of 939 nM. On the same counts, the results for `COc1ccc(CCNc2ncnc(C(=O)N3CCC(N4CCC(O)CC4)CC3)c2C)cc1Cl` [Example 105] are 31% and 687 nM. Taken in the same sequence, the figures for `Cc1c(NCc2cccc(OC(F)(F)F)c2)ncnc1C(=O)N1CCC(N2CCC(O)CC2)CC1` [Example 8] were 36% and 1020 nM. For `Cc1c(NCc2ccc(C(C)(C)C)cc2)ncnc1C(=O)N1CCC(NCC2CCCCO2)CC1` (stereo not shown) [Example 228gh], the affinity, expressed as Ki, was 4070 nM. For `Cc1c(NCC2CCCN(c3ccccc3)C2)ncnc1C(=O)N1CCC(N2CCOCC2)CC1` (stereo not shown) [Example 42], the remaining activity at 10 µM is 16% and affinity was put at a Ki of 433 nM. Compound `Cc1c(NCC2CCc3ccccc32)ncnc1C(=O)N1CCC(N2CCC(N(C)S(C)(=O)=O)CC2)CC1` (stereo not shown) [Example 159x] registered a Ki of 147 nM. For the compound `Cc1c(NCCCc2ccccc2)ncnc1C(=O)N1CCC(N2CCC(O)CC2)CC1` [Example 17], the remaining activity at 10 µM came out at 18% and the Ki stood at 302 nM.

Regarding `Cc1cccc(C2CCC(CNc3nc(C)nc(C(=O)N4CCC(N5CCC(N(C)S(C)(=O)=O)CC5)CC4)c3C)O2)c1` (stereo not shown) [Example 159sa], affinity was put at a Ki of 22 nM.

With `Cc1c(NCC2Cc3ccccc32)ncnc1C(=O)N1CCC(N2CCC(N(C)S(C)(=O)=O)CC2)CC1` (stereo not shown) [Example 159nb], the affinity corresponds to a Ki of 88 nM.

Take `Cc1c(NCc2ccc(Cl)c(Cl)c2)ncnc1C(=O)N1CCC(N(C)CC#N)CC1` [Example 182]: the remaining activity at 10 µM stood at 53% and the Ki is 2990 nM. Regarding `O=C(c1ncnc(NCc2cccc(-c3ccccc3)c2)c1Br)N1CCC(N2CCOCC2)CC1` [Example 277], the remaining activity at 10 µM was determined as 34% and the inhibitory constant (Ki) was determined as 1380 nM.

For `Cc1c(NCc2ccc(F)c(Cl)c2)ncnc1C(=O)N1CCC(N2CCC(N(C)S(C)(=O)=O)CC2)CC1` [Example 68], the remaining activity at 10 µM was determined as 7% and the Ki turned out to be 98 nM. On the same counts, the results for `Cc1c(NCCc2ccccc2)ncnc1C(=O)N1CCC(N2CCC(O)CC2)CC1` [Example 99] are 32% and 1830 nM. On the same counts, the results for `Cc1c(NCc2ccc(Cl)c(Cl)c2)ncnc1C(=O)N1CCC(N2CCCC(F)C2)CC1` (stereo not shown) [Example 233] are 8% and 194 nM. Taken in the same sequence, the figures for `CCN(C1CCN(C2CCN(C(=O)c3ncnc(NCCc4ccc(Cl)c(Cl)c4)c3C)CC2)CC1)S(C)(=O)=O` [Example 178] were 0% and 27 nM. The compound `Cc1c(NCC2(c3ccccc3)CCCCC2)ncnc1C(=O)N1CCC(N2CCC(N(C)S(C)(=O)=O)CC2)CC1` [Example 159t] gave a Ki of 1200 nM.

With `Cc1c(NCc2ccc(C(C)(C)C)cc2)ncnc1C(=O)N1CCC(N2CCC(CNS(C)(=O)=O)CC2)CC1` [Example 199], the remaining activity at 10 µM was found to be 9% and the affinity, expressed as Ki, was 534 nM. Taken in the same sequence, the figures for `Cc1c(NCc2cccc(Cl)c2)ncnc1C(=O)N1CCC(N2CCC(O)CC2)CC1` [Example 123] were 26% and 542 nM. Compound `CNC(=O)C1CCN(C2CCN(C(=O)c3ncnc(NC[C@H]4CCC[C@@H](c5ccccc5)C4)c3C)CC2)CC1` [Example 159p] gave a Ki of 7 nM. On to `Cc1c(NCc2ccc(OC(F)(F)F)cc2)ncnc1C(=O)N1CCC(N2CCC(O)CC2)CC1` [Example 5], for which the remaining activity at 10 µM is 26% and the Ki is 616 nM. `Cc1c(NCC2CCC(C(C)C)CC2)ncnc1C(=O)N1CCC(N2CCC(N(C)S(C)(=O)=O)CC2)CC1` (stereo not shown) [Example 159f] displayed an inhibitory constant (Ki) of 14 nM. The same measure, in the same setting: the figure for `Cc1c(NCC2CCc3ccccc3O2)ncnc1C(=O)N1CCC(N2CCC(N(C)S(C)(=O)=O)CC2)CC1` (stereo not shown) [Example 159ob] is 118 nM. Turning to `Cc1c(NCCc2ccc(Cl)cc2)ncnc1C(=O)N1CCC(N2CCC(O)CC2)CC1` [Example 124], the remaining activity at 10 µM was determined as 20% and the Ki was 361 nM.

As for `Cc1nc(NCc2ccc(Cl)c(F)c2)c(C)c(C(=O)N2CCC(N3CCC(N(C)S(C)(=O)=O)CC3)CC2)n1` [Example 80], the remaining activity at 10 µM stood at 7% and the Ki came out at 53 nM. Taken in the same sequence, the figures for `CCS(=O)(=O)N(C)C1CCN(C2CCN(C(=O)c3ncnc(NCC4CCN(c5ccccc5)CC4)c3C)CC2)CC1` [Example 40] were 9% and 174 nM. On the same counts, the results for `Cc1c(NCc2ccc(F)c(Cl)c2)ncnc1C(=O)N1CCC(N2CCC(O)CC2)CC1` [Example 111] are 27% and 464 nM.

Regarding `Cc1c(NCCc2ccc(Cl)c(Cl)c2)ncnc1C(=O)N1CCC(C(N)=O)(N2CCCCC2)CC1` [Example 252], the remaining activity at 10 µM stood at 6% and the affinity corresponds to a Ki of 38 nM. Consider `Cc1c(NCCc2ccc(Cl)c(Cl)c2)ncnc1C(=O)N1CCC(N2CCC[C@H](C(=O)O)C2)CC1` [Example 179], for which the remaining activity at 10 µM was 42% and the Ki stood at 1640 nM. Taken in the same sequence, the figures for `Cc1c(NCCc2ccc(Cl)c(Cl)c2)ncnc1C(=O)N1CCC(N2CCC(O)CC2)CC1` [Example 3] were 14% and 204 nM. For `Cc1c(NC[C@@H]2CC[C@@H](c3ccc(C(F)(F)F)cc3)O2)ncnc1C(=O)N1CCC(N2CCC(N(C)S(C)(=O)=O)CC2)CC1` [Example 159ma], affinity was put at a Ki of 20 nM. For the compound `CN(C1CCN(C2CCN(C(=O)c3ncnc(NCc4ccc(C(C)(C)C)cc4)c3C#N)CC2)CC1)S(C)(=O)=O` [Example 249], the remaining activity at 10 µM turned out to be 36% and the Ki was 3250 nM. Regarding `COc1ccc(CCNc2ncnc(C(=O)N3CCC(N4CCC(O)CC4)CC3)c2C)cc1Cl` [Example 119], the “CCR2 % ctrl @ 10 μM” value turned out to be 37 % ctrl and affinity was put at a Ki of 1030 nM.

Turning to `Cc1nc(NCc2ccc(Cl)c(Cl)c2)c(C)c(C(=O)N2CCC(N3CCC(NS(C)(=O)=O)CC3)CC2)n1` [Example 88], the remaining activity at 10 µM was determined as 6% and the affinity, expressed as Ki, was 58 nM.

For `Cc1ccc(CNc2ncnc(C(=O)N3CCC(N4CCCCC4)CC3)c2C)cc1F` [Example 137], the “CCR2 % ctrl @ 10 μM” value was 14 % ctrl and the affinity, expressed as Ki, was 634 nM. Take `CCS(=O)(=O)N(C)C1CCN(C2CCN(C(=O)c3ncnc(NCc4ccc(C)c(Cl)c4)c3C)CC2)CC1` [Example 32]: the remaining activity at 10 µM is 2% and the Ki was 37 nM. Regarding `Cc1c(NCC2CCN(c3ccccc3)C2)ncnc1C(=O)N1CCC(N2CCC(N(C)S(C)(=O)=O)CC2)CC1` (stereo not shown) [Example 60], the remaining activity at 10 µM is 5% and the affinity, expressed as Ki, was 44 nM. For the compound `COc1nc(NCC2CCCC(c3ccccc3)C2)c(C)c(C(=O)N2CCC(N3CCC(N(C)S(C)(=O)=O)CC3)CC2)n1` (stereo not shown) [Example 159a], the Ki amounted to 10 nM. On the same count and under the same terms, the figure for `Cc1nc(NC[C@H]2CC[C@H](c3ccc(F)c(C)c3)O2)c(C)c(C(=O)N2CCC(N3CCC(N(C)S(C)(=O)=O)CC3)CC2)n1` [Example 159ya] is 18 nM.

Take `CCN(C1CCN(C2CCN(C(=O)c3ncnc(NCc4ccc(C(C)(C)C)cc4)c3C)CC2)CC1)S(C)(=O)=O` [Example 206]: the remaining activity at 10 µM is 3% and the Ki came to 44 nM. On the same counts, the results for `Cc1ccc(CNc2ncnc(C(=O)N3CCC(N4CCC(N(C)S(C)(=O)=O)CC4)CC3)c2C)cc1Cl` [Example 59] are 5% and 55 nM. On the same counts, the results for `Cc1c(NCc2ccc(Cl)c(Cl)c2)ncnc1C(=O)N1CCC(N2CCC(S(N)(=O)=O)CC2)CC1` [Example 228] are 16% and 331 nM. Taken in the same sequence, the figures for `Cc1c(NCCc2ccc(Cl)c(Cl)c2)ncnc1C(=O)N1CCC(N2CCC[C@H](C(=O)N(C)C)C2)CC1` [Example 177] were 43% and 1250 nM. On to `CCc1ccc(CNc2ncnc(C(=O)N3CCC(N4CCC(N(C)S(C)(=O)=O)CC4)CC3)c2C)cc1` [Example 56], for which the remaining activity at 10 µM came out at 8% and the affinity, expressed as Ki, was 127 nM.

The compound `Cc1c(NCc2ccc(-c3ccccc3)o2)ncnc1C(=O)N1CCC(N2CCC(N(C)S(C)(=O)=O)CC2)CC1` [Example 159u] showed a Ki of 29 nM. On the same count and under the same terms, for `Cc1ccc([C@H]2CCC[C@@H](CNc3ncnc(C(=O)N4CCC(N5CCC(N(C)S(C)(=O)=O)CC5)CC4)c3C)C2)o1` [Example 159xb] the value was 6 nM; for `Cc1nc(NC[C@@H]2CCC[C@H](c3ccc(C)o3)C2)c(C)c(C(=O)N2CCC(N3CCC(N(C)S(C)(=O)=O)CC3)CC2)n1` [Example 159cc], 10 nM; for `Cc1c(NCc2coc(-c3ccccc3)c2)ncnc1C(=O)N1CCC(N2CCC(N(C)S(C)(=O)=O)CC2)CC1` [Example 159mb], 14 nM. For the compound `Cc1c(NCc2ccc(C(F)(F)F)c(Cl)c2)ncnc1C(=O)N1CCC(N2CCC(NS(C)(=O)=O)CC2)CC1` [Example 75], the remaining activity at 10 µM turned out to be 7% and the Ki worked out at 67 nM. Turning to `Cc1c(NCc2ccc(C(C)(C)C)cc2)ncnc1C(=O)N1CCC(N2C3CCC2CC(O)C3)CC1` (stereo not shown) [Example 228gm], the affinity corresponds to a Ki of 28 nM.
